Test system: 282377-053-R-J1-PDC complex spheroid viability
Assay: Anticancer human tumor 282377-053-R-J1-PDC patient-derived colon adenocarcinoma cell line growth inhibition [RAS]
Conditions: for IC50: curve of first compound; for viability, T/C: stronger effect = lower value
Excerpt: RAS pathway inhibitors in Combinations in Complex Spheroids
A high-throughput screen of multi-cell type tumor spheroids was designed to identify active combinations of RAS pathway inhibitors and targeted small molecules. Complex spheroids include a stromal component modeled by human endothelial cells (HUVEC) and fibroblasts modeled by human mesenchymal stem cells (MSCs). The concentration ranges selected for each drug and investigational agent were based upon clinically achievable concentrations if the clinical Cmax of the agent was known.
Compounds. The drugs and investigational agents: abemaciclib (NSC768073), cobimetinib (NSC768068), divarasib (GDC6063, NSC841802), docetaxel (NSC628503), GDC-1971 (RLY-1971, NSC841576), gemcitabine (NSC613327), inavolisib (NSC800729), ipatasertib (NSC767898), KB-0742 (NSC834161), MRTX-1133 (NSC836407), osimertinib (NSC779217), RMC-4630 (NSC839698), RMC-6236 (NSC851965), RMC-6291 (NSC852671), Ro-3306 (NSC812927), sapanisertib (NSC764658), SN-38 (NSC673596), staurosporine (NSC755774), SY5609 (NSC837396), and tovorafenib (DAY101, NSC766906), were obtained from the National Cancer Institute (NCI) Developmental Therapeutics Program Chemical Repository. The FDA-approved anticancer drug set is available from the NCI Developmental Therapeutics Program. […] The stock solutions were prepared in dimethyl sulfoxide (DMSO, Sigma-Aldrich, St. Louis, MO, cat. D2650) at 800-fold the tested concentration and stored at -70 degrees C prior to their use. All drugs and investigational agents were tested over a range starting from a high concentration at or near the clinical Cmax and decreasing in half-log increments. If the clinical Cmax for an agent had not been determined, the highest concentration tested was 10 microM.
Cell Culture. All cells were maintained in an incubator at 37 degrees C and 5% CO2 with 95% humidity. The PDC lines were cultured according to standard operating procedures established by the NCI PDMR. All PDCs were thawed and cultured in Matrigel-coated flasks prepared with a working solution of 1X Ham's F-12 nutrient mix, without supplementation (Invitrogen, Waltham, MA, cat. 11765054), 100 U/mL penicillin-streptomycin (Invitrogen, cat. 15140122), and 2.5% Matrigel (Corning Inc., Corning, NY, cat. 354248) for the first three passages. The 362531-283-R-J2-PDC and 782815-120-R-J1-PDC lines were cultured in 6C/Colon 1B media, which includes advanced DMEM/F-12 (Thermo Fisher Scientific, cat. 12634028), 10 mM HEPES (Thermo Fisher Scientific, cat. 15630080), 1X GlutaMAX supplement (Thermo Fisher Scientific, cat. 35050061), 0.1 mg/mL primocin (InvivoGen, San Diego, CA, cat. ant-pm-2), 10% defined fetal bovine serum, heat inactivated (HyClone Laboratories Inc., Logan, UT, cat. SH30070.03HI), 50% L-WRN conditioned media (ATCC, cat. CRL-3276), 1.25 mM N-Acetyl-L-cysteine (Sigma-Aldrich, cat. A9165), 10 mM nicotinamide (Sigma-Aldrich, cat. N0636), 1X B-27 supplement (Thermo Fisher Scientific, cat. 17504044), 1X N-2 supplement (Thermo Fisher Scientific, cat. 17502048), 50 ng/mL human EGF (Thermo Fisher Scientific, cat. PHG0311), and 10 microM Y-27632 dihydrochloride (Tocris Bioscience, cat. 1254). The K12877-001-R-J1-PDC line was cultured in 6I media, which includes all 6C/Colon 1B media plus 10 ng/mL human FGF-10 (PeproTech, cat. 100-26), 1 ng/mL human FGF-2 (PeproTech, cat. 100-18B), 1 µM prostaglandin E2 (Tocris Bioscience, cat. 2296), […] hydrocortisone (Sigma-Aldrich, cat. H4001), and […] bovine insulin (Sigma-Aldrich, cat. I6634). The K86415-001-R-J1-PDC line was cultured in 6D media, which includes all 6C/Colon 1B media components minus the L-WRN conditioned media. The 485176-168-R4-J1-PDC was cultured in PANC media, which includes all 6C/Colon 1B media plus 100 ng/mL human FGF-10 (PeproTech, cat. 100-26), 500 nM SB-431542 (Selleckchem, cat. S1067), and 10 nM gastrin (Tocris Bioscience, cat. 3006). […]

[1] = second compound 0.0316 µM, first compound 0.0316 µM
[2] = second compound 0.0316 µM, first compound 0.1 µM
[3] = second compound 0.0316 µM, first compound 0.316 µM
[4] = second compound 0.0316 µM, first compound 1 µM
[5] = second compound 0.0316 µM, first compound 3.16 µM
[6] = second compound 0.0316 µM, first compound 10 µM
[7] = second compound 0.1 µM, first compound 0.0316 µM
[8] = second compound 0.1 µM, first compound 0.1 µM
[9] = second compound 0.1 µM, first compound 0.316 µM
[10] = second compound 0.1 µM, first compound 1 µM
[11] = second compound 0.1 µM, first compound 3.16 µM
[12] = second compound 0.1 µM, first compound 10 µM
[13] = second compound 0.316 µM, first compound 0.0316 µM
[14] = second compound 0.316 µM, first compound 0.1 µM
[15] = second compound 0.316 µM, first compound 0.316 µM
[16] = second compound 0.316 µM, first compound 1 µM
[17] = second compound 0.316 µM, first compound 3.16 µM
[18] = second compound 0.316 µM, first compound 10 µM
[19] = second compound 1 µM, first compound 0.0316 µM
[20] = second compound 1 µM, first compound 0.1 µM
[21] = second compound 1 µM, first compound 0.316 µM
[22] = second compound 1 µM, first compound 1 µM
[23] = second compound 1 µM, first compound 3.16 µM
[24] = second compound 1 µM, first compound 10 µM
[25] = second compound 3.16 µM, first compound 0.0316 µM
[26] = second compound 3.16 µM, first compound 0.1 µM
[27] = second compound 3.16 µM, first compound 0.316 µM
[28] = second compound 3.16 µM, first compound 1 µM
[29] = second compound 3.16 µM, first compound 3.16 µM
[30] = second compound 3.16 µM, first compound 10 µM
[31] = second compound 10 µM, first compound 0.0316 µM
[32] = second compound 10 µM, first compound 0.1 µM
[33] = second compound 10 µM, first compound 0.316 µM
[34] = second compound 10 µM, first compound 1 µM
[35] = second compound 10 µM, first compound 3.16 µM
[36] = second compound 10 µM, first compound 10 µM
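Also: spheroids exposed to agents for seven days before readout.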
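For viability, T/C in this document: luminescence viability as percent of DMSO vehicle control wells.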

CCC(CC)c1cc(NC2CCC(N)C2)n2nccc2n1 (stereo unspecified) + C#Cc1c(F)ccc2cc(O)cc(-c3ncc4c(N5CC6CCC(C5)N6)nc(OCC56CCCN5CC(F)C6)nc4c3F)c12
IC50 (second compound 0.0316 µM): 1.97 µM
IC50 (second compound 0.1 µM): 2.02 µM
IC50 (second compound 0.316 µM): 1.86 µM
IC50 (second compound 1 µM): 1.7 µM
IC50 (second compound 3.16 µM): 1.91 µM
IC50 (second compound 10 µM): 1.76 µM
viability, T/C [1]: 113%
viability, T/C [2]: 120%
viability, T/C [3]: 89.4%
viability, T/C [4]: 111%
viability, T/C [5]: 9.2%
viability, T/C [6]: 2.06%
viability, T/C [7]: 113%
viability, T/C [8]: 123%
viability, T/C [9]: 94.9%
viability, T/C [10]: 118%
viability, T/C [11]: 10.2%
viability, T/C [12]: 2.09%
viability, T/C [13]: 107%
viability, T/C [14]: 102%
viability, T/C [15]: 81.3%
viability, T/C [16]: 96.9%
viability, T/C [17]: 9.63%
viability, T/C [18]: 2.11%
viability, T/C [19]: 103%
viability, T/C [20]: 95.4%
viability, T/C [21]: 86.8%
viability, T/C [22]: 84.6%
viability, T/C [23]: 9.29%
viability, T/C [24]: 2.23%
viability, T/C [25]: 99.5%
viability, T/C [26]: 112%
viability, T/C [27]: 104%
viability, T/C [28]: 100%
viability, T/C [29]: 10.8%
viability, T/C [30]: 2.69%
viability, T/C [31]: 101%
viability, T/C [32]: 95.9%
viability, T/C [33]: 96.3%
viability, T/C [34]: 89.4%
viability, T/C [35]: 9.18%
viability, T/C [36]: 3.74%

Cc1nc(N2CCC3(CC2)COC(C)C3N)c(CO)nc1Sc1ccnc(N)c1Cl (stereo unspecified) + C#Cc1c(F)ccc2cc(O)cc(-c3ncc4c(N5CC6CCC(C5)N6)nc(OCC56CCCN5CC(F)C6)nc4c3F)c12
IC50 (second compound 0.0316 µM): > 10 µM
IC50 (second compound 0.1 µM): > 10 µM
IC50 (second compound 0.316 µM): > 10 µM
IC50 (second compound 1 µM): > 10 µM
IC50 (second compound 3.16 µM): > 10 µM
IC50 (second compound 10 µM): > 10 µM
viability, T/C [1]: 101%
viability, T/C [2]: 120%
viability, T/C [3]: 114%
viability, T/C [4]: 113%
viability, T/C [5]: 95.9%
viability, T/C [6]: 87.3%
viability, T/C [7]: 109%
viability, T/C [8]: 107%
viability, T/C [9]: 88.7%
viability, T/C [10]: 89.8%
viability, T/C [11]: 99.5%
viability, T/C [12]: 89.4%
viability, T/C [13]: 107%
viability, T/C [14]: 114%
viability, T/C [15]: 95%
viability, T/C [16]: 100%
viability, T/C [17]: 114%
viability, T/C [18]: 101%
viability, T/C [19]: 116%
viability, T/C [20]: 110%
viability, T/C [21]: 110%
viability, T/C [22]: 86%
viability, T/C [23]: 98%
viability, T/C [24]: 85%
viability, T/C [25]: 99.3%
viability, T/C [26]: 103%
viability, T/C [27]: 89.8%
viability, T/C [28]: 111%
viability, T/C [29]: 98.2%
viability, T/C [30]: 120%
viability, T/C [31]: 110%
viability, T/C [32]: 116%
viability, T/C [33]: 114%
viability, T/C [34]: 98.5%
viability, T/C [35]: 85.8%
viability, T/C [36]: 131%

NC1c2ccccc2OC12CCN(c1cnc3c(N4CCCc5ncccc54)n[nH]c3n1)CC2 (stereo unspecified) + C#Cc1c(F)ccc2cc(O)cc(-c3ncc4c(N5CC6CCC(C5)N6)nc(OCC56CCCN5CC(F)C6)nc4c3F)c12
IC50 (second compound 0.0316 µM): > 10 µM
IC50 (second compound 0.1 µM): > 10 µM
IC50 (second compound 0.316 µM): > 10 µM
IC50 (second compound 1 µM): > 10 µM
IC50 (second compound 3.16 µM): > 10 µM
IC50 (second compound 10 µM): > 10 µM
viability, T/C [1]: 92.2%
viability, T/C [2]: 91.7%
viability, T/C [3]: 111%
viability, T/C [4]: 104%
viability, T/C [5]: 88.3%
viability, T/C [6]: 67.5%
viability, T/C [7]: 90.7%
viability, T/C [8]: 85.5%
viability, T/C [9]: 99.2%
viability, T/C [10]: 71.9%
viability, T/C [11]: 110%
viability, T/C [12]: 73%
viability, T/C [13]: 105%
viability, T/C [14]: 87.4%
viability, T/C [15]: 78.4%
viability, T/C [16]: 95.6%
viability, T/C [17]: 94.8%
viability, T/C [18]: 78.7%
viability, T/C [19]: 83%
viability, T/C [20]: 88.1%
viability, T/C [21]: 106%
viability, T/C [22]: 92.5%
viability, T/C [23]: 85.1%
viability, T/C [24]: 83%
viability, T/C [25]: 90.4%
viability, T/C [26]: 96%
viability, T/C [27]: 99.6%
viability, T/C [28]: 86.5%
viability, T/C [29]: 90.4%
viability, T/C [30]: 77.1%
viability, T/C [31]: 115%
viability, T/C [32]: 105%
viability, T/C [33]: 108%
viability, T/C [34]: 84.7%
viability, T/C [35]: 109%
viability, T/C [36]: 81.6%
